The values that follow come from paper PMC5793879 (Cancer cell, 2017).

For orientation: IC50 means the point on the concentration scale where inhibition reaches its midpoint.

One experiment has as its system OCI-AML3 cells. Put plainly: Caspase-3/7 activation assay. As to conditions: co-treatment with BTSA1. Type of experiment: cell-based, human.
A further experiment addresses T1, BFL-1/A1 (Homo sapiens, UniProt Q16548).
T1 sequence (Q16548 1-151 limits assumed): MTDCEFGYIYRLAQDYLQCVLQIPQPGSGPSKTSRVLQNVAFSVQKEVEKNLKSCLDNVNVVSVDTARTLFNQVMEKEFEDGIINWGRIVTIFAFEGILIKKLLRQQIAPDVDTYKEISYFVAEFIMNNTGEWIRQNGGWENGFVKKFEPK
Type of experiment: binding. To be noted: BTSA1 at 50 μM.

Another experiment addresses BCL-XL (Homo sapiens, UniProt Q07817). Type of experiment: binding. To be noted: BTSA1 at 50 μM.
The target of a further experiment is MCL-1 (Homo sapiens, UniProt Q07820). The class given is binding.
In experiment [1] the target is BAX trigger site (full-length BAX) (Homo sapiens, UniProt Q07812). The class given is binding. As to conditions: relative to BTSA1.
The subject of the next experiment is MEF cell lines. Put plainly: Viability assay of MEF cell lines. The class given is cell-based, mouse.
In experiment [2] the test system is BAX KO MEF, DKO MEF, wild type MEF, H9c2 myocytes, 3T3 fibroblasts.
The subject of experiment [3] is isolated mitochondria from mouse liver. As to conditions: without addition of BAX.

Read-outs that look alike come from different tables or passages of the source. Bridge positions count the residues as written; N and C are the ends. Square brackets hold non-standard residues; d marks the D form. Peptide text beside a SMILES is read from it. S5 = C=CCCC[C@](C)(N)C(=O)O

Sequence of BCL-XL (Q07817 1-212 limits assumed): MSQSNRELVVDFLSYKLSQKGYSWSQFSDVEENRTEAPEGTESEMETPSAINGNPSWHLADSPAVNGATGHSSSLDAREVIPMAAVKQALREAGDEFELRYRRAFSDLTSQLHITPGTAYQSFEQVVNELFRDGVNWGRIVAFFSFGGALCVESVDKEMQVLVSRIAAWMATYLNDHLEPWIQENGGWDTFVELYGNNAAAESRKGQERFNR
Sequence of MCL-1 (Q07820 170-327 limits assumed): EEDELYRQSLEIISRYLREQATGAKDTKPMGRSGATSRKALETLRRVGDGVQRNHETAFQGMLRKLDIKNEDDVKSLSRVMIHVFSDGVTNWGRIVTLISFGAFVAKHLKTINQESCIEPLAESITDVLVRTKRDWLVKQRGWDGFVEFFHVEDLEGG
Sequence of BAX trigger site (full-length BAX) (Q07812 whole entry): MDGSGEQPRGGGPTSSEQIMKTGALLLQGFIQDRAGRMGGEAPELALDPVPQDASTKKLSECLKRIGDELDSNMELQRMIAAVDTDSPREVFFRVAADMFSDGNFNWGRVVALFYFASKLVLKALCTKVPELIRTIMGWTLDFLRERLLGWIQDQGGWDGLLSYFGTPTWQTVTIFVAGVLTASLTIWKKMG

In the case of `OC(CN1CCNCC1)Cn1c2ccc(Br)cc2c2cc(Br)ccc21` (stereo not drawn) [reference compound], in the experiment on OCI-AML3 cells, the “inhibition of BTSA1-mediated apoptosis measured by caspase-3/7 activation” value is recorded as “complete inhibition”.

As to `CC[C@H](C)[C@H](NC(=O)[C@H](Cc1c[nH]c2ccccc12)NC(=O)[C@@H](NC(=O)[C@H](CCC(=O)O)NC(C)=O)[C@@H](C)CC)C(=O)N[C@@H](C)C(=O)N[C@@H](CCC(N)=O)C(=O)N[C@@H](CCC(=O)O)C(=O)N[C@@H](CC(C)C)C(=O)N[C@@H](CCCNC(=N)N)C(=O)N[C@@]1(C)CCCC=CCCC[C@@](C)(C(=O)N[C@@H](Cc2ccccc2)C(=O)N[C@@H](CC(N)=O)C(=O)N[C@@H](C)C(=O)N[C@@H](Cc2ccc(O)cc2)C(=O)N[C@@H](Cc2ccc(O)cc2)C(=O)N[C@@H](C)C(N)=O)NC(=O)[C@H](CC(=O)O)NC(=O)CNC(=O)[C@H]([C@@H](C)CC)NC1=O` [BIM SAHBA2, reference compound] (Ac-EIWIAQELR[S5]IGD[S5]FNAYYA-NH2; staple 10-14 (inferred)), on BFL-1/A1, the “competition of FITC-BIM SAHBA2 binding to BFL-1/A1” value is “effectively competed”. In addition, the “competition of FITC-BIM SAHBA2 binding to BCL-XL” value on BCL-XL is given as “effectively competed”. Moreover, the “competition of FITC-BIM SAHBA2 binding to MCL-1” value at MCL-1 (BTSA1 at 50 μM) is listed as “effectively competed”.

`CC1=NN(c2nc(-c3ccccc3)cs2)C(=O)C1=NNc1nccs1` [BTSA2]: the “reduction in binding capacity to BAX” value in experiment [1] is listed as ~ 10 fold.

Consider `CC1(C)CCC(c2ccc(Cl)cc2)=C(CN2CCN(c3ccc(C(=O)NS(=O)(=O)c4ccc(N[C@H](CCN5CCOCC5)CSc5ccccc5)c(S(=O)(=O)C(F)(F)F)c4)cc3)CC2)C1` [Navitoclax, reference compound], for which the IC50 in the experiment on MEF cell lines (Mus musculus, MEF, read-out: IC50, viability) was 1 to 5 µM.

Take `O=C1C(=NNc2nccs2)C(c2ccccc2)=NN1c1nc(-c2ccccc2)cs1` [BTSA1]: the “competition of FITC-BIM SAHBA2 binding to BCL-XL” value on BCL-XL was “no capacity to compete”. Also, the “sensitivity of MEF cell lines” value in the experiment on MEF cell lines is “insensitive”. In addition, the “sensitivity to treatment, cells with no BAX expression” value in experiment [2] (BAX KO MEF and DKO MEF, 24 hr) is given as “exhibit resistance”. In experiment [2] (wild type MEF, H9c2 myocytes, 3T3 fibroblasts, doses giving complete cell death in AML cells), the “sensitivity to treatment, cells that express BAX” value is recorded as “still exhibit resistance”. For the same compound, the “competition of FITC-BIM SAHBA2 binding to MCL-1” value at MCL-1 is given as “no capacity to compete”. Moreover, in experiment [3], the cytochrome c release result is “no effect”.
